Data reported in ChEMBL document CHEMBL1667779, “Structure-based parallel medicinal chemistry approach to improve metabolic stability of benzopyran COX-2 inhibitors” (Bioorg Med Chem Lett, 2011).

Columns and labels:
[1] = Metabolic stability of the compound in rat liver microsomes assessed as compound remaining at 2 mM after 30 mins by LC/MS analysis; format: ADME, Microsome; details: read-out: Stability
[2] = molecular target: Prostaglandin G/H synthase 1 (Homo sapiens, UniProt P23219)
Homo sapiens = species: Homo sapiens; assay: Selectivity ratio of IC50 for human COX1 to IC50 for human COX2
[3] = molecular target: T1, Prostaglandin G/H synthase 2 (Homo sapiens, UniProt P35354)
T1 sequence (P35354 whole entry): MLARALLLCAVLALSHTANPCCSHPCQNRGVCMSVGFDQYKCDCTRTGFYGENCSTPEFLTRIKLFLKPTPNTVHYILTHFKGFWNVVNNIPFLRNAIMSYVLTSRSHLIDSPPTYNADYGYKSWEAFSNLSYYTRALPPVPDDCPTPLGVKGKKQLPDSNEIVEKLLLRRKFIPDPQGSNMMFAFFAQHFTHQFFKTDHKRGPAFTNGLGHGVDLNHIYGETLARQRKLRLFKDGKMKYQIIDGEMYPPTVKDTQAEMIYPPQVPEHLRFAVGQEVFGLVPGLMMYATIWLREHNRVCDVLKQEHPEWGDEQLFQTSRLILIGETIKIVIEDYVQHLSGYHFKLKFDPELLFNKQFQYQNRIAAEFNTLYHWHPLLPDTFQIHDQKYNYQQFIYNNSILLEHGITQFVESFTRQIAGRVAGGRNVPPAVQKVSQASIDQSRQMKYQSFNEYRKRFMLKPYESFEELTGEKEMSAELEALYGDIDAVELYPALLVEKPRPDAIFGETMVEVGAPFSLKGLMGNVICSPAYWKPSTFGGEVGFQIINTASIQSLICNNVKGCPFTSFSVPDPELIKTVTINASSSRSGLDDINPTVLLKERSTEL

[4] = Metabolic stability of the compound in human liver microsomes assessed as compound remaining at 2 mM after 30 mins by LC/MS analysis; format: ADME, Microsome; details: read-out: Stability
[5] = Solubility of the compound; format: physicochemical; details: read-out: Stability
[6] = Half life in human; format: ADME, organism-based; details: in vivo

Chain of Prostaglandin G/H synthase 1 (P23219 whole entry): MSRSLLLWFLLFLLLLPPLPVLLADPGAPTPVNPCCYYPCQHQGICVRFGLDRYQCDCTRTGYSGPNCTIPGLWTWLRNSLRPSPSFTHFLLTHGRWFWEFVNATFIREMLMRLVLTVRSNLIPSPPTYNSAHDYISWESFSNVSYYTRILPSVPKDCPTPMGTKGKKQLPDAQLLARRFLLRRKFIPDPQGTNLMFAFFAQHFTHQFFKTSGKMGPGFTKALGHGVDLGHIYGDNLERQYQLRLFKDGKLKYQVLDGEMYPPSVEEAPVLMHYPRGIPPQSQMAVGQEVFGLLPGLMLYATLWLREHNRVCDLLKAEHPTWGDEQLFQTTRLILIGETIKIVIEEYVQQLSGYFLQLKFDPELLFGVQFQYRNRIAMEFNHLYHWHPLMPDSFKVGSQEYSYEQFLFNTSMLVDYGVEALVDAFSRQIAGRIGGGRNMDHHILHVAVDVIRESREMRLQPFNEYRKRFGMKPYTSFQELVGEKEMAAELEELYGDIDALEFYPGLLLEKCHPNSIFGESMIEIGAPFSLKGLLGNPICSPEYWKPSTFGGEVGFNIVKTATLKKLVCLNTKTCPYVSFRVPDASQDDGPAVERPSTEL

Row | SMILES | remaining at 0.5 h [1] | IC50 [2] | Selectivity ratio (Homo sapiens) | IC50 [3] | remaining at 0.5 h [4] | solubility [5] | half-life [6]
1 | COc1ccc(-c2cc(Cl)cc3c2OC(C(F)(F)F)C(C(=O)O)=C3)cc1C (stereo not drawn) | 61% | > 100 µM | > 295 | 0.339 µM | 84% | – | –
2 | O=C(O)C1=Cc2cc(Cl)cc(Cl)c2OC1C(F)(F)F (stereo not drawn) | 100% | – | – | – | 100% | > 30 µM | 15 days
3 | O=C(O)C1=Cc2cc(Cl)cc(-c3ccc(C(=O)O)cc3)c2OC1C(F)(F)F (stereo not drawn) | 91% | > 100 µM | – | > 100 µM | 90% | – | –
4 | Cc1ccc(-c2cc(Cl)cc3c2OC(C(F)(F)F)C(C(=O)O)=C3)cc1 (stereo not drawn) | 60% | 4.34 µM | 42.1 | 0.103 µM | 18% | – | –
5 | CC(C)Cc1ccc(-c2cc(Cl)cc3c2OC(C(F)(F)F)C(C(=O)O)=C3)cc1 (stereo not drawn) | 96% | 26.5 µM | 2 | 13.4 µM | 88% | – | –
6 | Cc1ccc(-c2cc(Cl)cc3c2OC(C(F)(F)F)C(C(=O)O)=C3)cc1F (stereo not drawn) | 55% | – | 375 | – | 31% | – | –
7 | CCSc1ccc(-c2cc(Cl)cc3c2OC(C(F)(F)F)C(C(=O)O)=C3)cc1 (stereo not drawn) | 47% | – | – | 0.242 µM | 75% | – | –
8 | CS(=O)(=O)c1ccc(-c2cc(Cl)cc3c2OC(C(F)(F)F)C(C(=O)O)=C3)cc1 (stereo not drawn) | – | 3.87 µM | 0.182 | 21.3 µM | – | – | –
9 | CCc1ccc(-c2cc(Cl)cc3c2OC(C(F)(F)F)C(C(=O)O)=C3)cc1 (stereo not drawn) | 60% | 17.7 µM | 226 | – | 18% | – | –
10 | Nc1ccc(-c2cc(Cl)cc3c2OC(C(F)(F)F)C(C(=O)O)=C3)cc1 (stereo not drawn) | 53% | 1.39 µM | 0.764 | 1.82 µM | 93% | – | –
11 | CS(=O)(=O)Nc1ccc(-c2cc(Cl)cc3c2OC(C(F)(F)F)C(C(=O)O)=C3)cc1 (stereo not drawn) | 53% | > 100 µM | > 2.5 | 40.1 µM | 100% | – | –
12 | NS(=O)(=O)c1ccc(-c2cc(Cl)cc3c2OC(C(F)(F)F)C(C(=O)O)=C3)cc1 (stereo not drawn) | – | 91.4 µM | 120 | – | – | – | –
13 | O=C(O)C1=Cc2cc(Cl)cc(-c3ccc(CO)cc3)c2OC1C(F)(F)F (stereo not drawn) | 75% | 2.44 µM | 0.38 | 6.38 µM | 93% | – | –
14 | CCOc1ccc(-c2cc(Cl)cc3c2OC(C(F)(F)F)C(C(=O)O)=C3)cc1 (stereo not drawn) | 82% | 32 µM | 90.1 | 0.355 µM | 91% | – | –
15 | O=C(O)C1=Cc2cc(Cl)cc(-c3ccc(Cl)cc3)c2OC1C(F)(F)F (stereo not drawn) | 57% | 0.242 µM | 11.4 | 0.0211 µM | 53% | – | –
16 | O=C(O)C1=Cc2cc(Cl)cc(-c3ccc(O)cc3)c2OC1C(F)(F)F (stereo not drawn) | 94% | 2.91 µM | 0.84 | 3.48 µM | 91% | – | –
17 | O=C(O)C1=Cc2cc(Cl)cc(-c3ccccc3)c2OC1C(F)(F)F (stereo not drawn) | – | 1.54 µM | 8.2 | 0.188 µM | – | – | –
18 | O=C(O)C1=Cc2cc(Cl)cc(-c3ccc(F)cc3)c2OC1C(F)(F)F (stereo not drawn) | – | – | < 0.007 | > 100 µM | – | – | –
